Measured values taken from PubChem BioAssay AID330 (DTP/NCI, 2004).
Values joined by “and” are separate entries in the source; they are usually repeats but may differ in a detail not shown here. Equal values may be shown once. Toxic doses and inconclusive results are not listed.

Test system: P388 leukemia ip, CD2F1 mice, survival T/C
Experiment: NCI In Vivo Anticancer Drug Screen. Data for tumor model P388 Leukemia (intraperitoneal) in CD2F1 (CDF1) mice
Conditions: endpoint: median survival time, higher = longer survival
Procedure, shortened: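 Mice carrying the transplanted tumor received test compound or vehicle. Survival was recorded in each group, and the value is the treated-group measurement divided by that of the vehicle-treated control group.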

[1] = dose: 12.5 mg/kg/injection, schedule: Q01DX009 (ip), vehicle: saline with Tween-80
[2] = dose: 25.0 mg/kg/injection, schedule: Q01DX009 (ip), vehicle: saline with Tween-80
[3] = dose: 50.0 mg/kg/injection, schedule: Q01DX009 (ip), vehicle: saline with Tween-80
[4] = dose: 100.0 mg/kg/injection, schedule: Q01DX009 (ip), vehicle: saline with Tween-80
[5] = dose: 200.0 mg/kg/injection, schedule: Q01DX009 (ip), vehicle: saline with Tween-80
[6] = dose: 60.0 mg/kg/injection, schedule: Q01DX005 (ip), vehicle: saline with Tween-80
[7] = dose: 120.0 mg/kg/injection, schedule: Q01DX005 (ip), vehicle: saline with Tween-80
[8] = dose: 100.0 mg/kg/injection, schedule: Q04DX003 (ip), vehicle: Klucel (hydroxypropylcellulose) (HPC)
[9] = dose: 200.0 mg/kg/injection, schedule: Q04DX003 (ip), vehicle: Klucel (hydroxypropylcellulose) (HPC)
[10] = dose: 400.0 mg/kg/injection, schedule: Q04DX003 (ip), vehicle: Klucel (hydroxypropylcellulose) (HPC)
[11] = dose: 50.0 mg/kg/injection, schedule: Q01DX009 (ip), vehicle: Klucel (hydroxypropylcellulose) (HPC)
[12] = dose: 100.0 mg/kg/injection, schedule: Q01DX009 (ip), vehicle: Klucel (hydroxypropylcellulose) (HPC)
[13] = dose: 200.0 mg/kg/injection, schedule: Q01DX009 (ip), vehicle: Klucel (hydroxypropylcellulose) (HPC)
[14] = dose: 50.0 mg/kg/injection, schedule: Q01DX005 (ip), vehicle: Klucel (hydroxypropylcellulose) (HPC)
[15] = dose: 100.0 mg/kg/injection, schedule: Q01DX005 (ip), vehicle: Klucel (hydroxypropylcellulose) (HPC)
[16] = dose: 200.0 mg/kg/injection, schedule: Q01DX005 (ip), vehicle: Klucel (hydroxypropylcellulose) (HPC)

Structure (SMILES): OCC(O)CCBr (stereo unspecified)
- T/C [1]: 107 % of control
- T/C [2]: 107 % of control
- T/C [3]: 114 % of control and 96 % of control
- T/C [4]: 89 % of control
- T/C (dose: 100.0 mg/kg/injection, schedule: Q04DX003 (ip), vehicle: saline): 118 % of control
- T/C [5]: 95 % of control
- T/C (dose: 200.0 mg/kg/injection, schedule: Q04DX003 (ip), vehicle: saline): 122 % of control
- T/C (dose: 264.0 mg/kg/injection, schedule: Q01DX009 (ip), vehicle: saline sonified): 159 % of control
- T/C (dose: 264.0 mg/kg/injection, schedule: Q04DX003 (ip), vehicle: saline): 110 % of control
- T/C (dose: 400.0 mg/kg/injection, schedule: Q01DX009 (ip), vehicle: saline sonified): 181 % of control
- T/C (dose: 600.0 mg/kg/injection, schedule: Q01DX009 (ip), vehicle: saline sonified): 186 % of control
- T/C (dose: 600.0 mg/kg/injection, schedule: Q04DX003 (ip), vehicle: saline): 115 % of control

Structure (SMILES): CCCCCCCC/C=C\CCCCCCCC(=O)OCC(COC(=O)CCCCCCC/C=C\CCCCCCCC)OC(=O)N(CCCl)CCCl
- T/C (dose: 30.0 mg/kg/injection, schedule: Q01DX005 (ip), vehicle: saline with Tween-80): 118 % of control
- T/C [6]: 115 % of control
- T/C [7]: 174 % of control
- T/C (dose: 240.0 mg/kg/injection, schedule: Q01DX005 (ip), vehicle: saline with Tween-80): 205 % of control and 259 % of control

Structure (SMILES): CCOC(=O)c1ccnc2ccc(OCCN(CC)CC)cc12
- T/C (dose: 50.0 mg/kg/injection, schedule: Q01DX005 (ip), vehicle: saline): 96 % of control
- T/C (dose: 100.0 mg/kg/injection, schedule: Q01DX005 (ip), vehicle: saline): 100 % of control
- T/C (dose: 200.0 mg/kg/injection, schedule: Q01DX005 (ip), vehicle: saline): 101 % of control

Structure (SMILES): O=C1c2ccccc2C(=O)C1(c1ccccn1)[N+](=O)[O-]
- T/C [6]: 110 % of control
- T/C [7]: 113 % of control

Structure (SMILES): CCSC(SCC)C(NC(C)=O)C(OC(C)=O)C(OC(C)=O)C(COC(C)=O)OC(C)=O (stereo unspecified)
- T/C (dose: 12.5 mg/kg/injection, schedule: Q01DX009 (ip), vehicle: other): 107 % of control
- T/C (dose: 25.0 mg/kg/injection, schedule: Q01DX009 (ip), vehicle: other): 107 % of control
- T/C (dose: 50.0 mg/kg/injection, schedule: Q01DX009 (ip), vehicle: other): 95 % of control
- T/C (dose: 100.0 mg/kg/injection, schedule: Q01DX009 (ip), vehicle: other): 107 % of control
- T/C (dose: 200.0 mg/kg/injection, schedule: Q01DX009 (ip), vehicle: other): 98 % of control

Structure (SMILES): O=C(N/N=C/c1ccccn1)c1ccccc1
- T/C (dose: 60.0 mg/kg/injection, schedule: Q01DX005 (ip), vehicle: Klucel (hydroxypropylcellulose) (HPC)): 102 % of control
- T/C (dose: 120.0 mg/kg/injection, schedule: Q01DX005 (ip), vehicle: Klucel (hydroxypropylcellulose) (HPC)): 97 % of control
- T/C (dose: 240.0 mg/kg/injection, schedule: Q01DX005 (ip), vehicle: Klucel (hydroxypropylcellulose) (HPC)): 100 % of control

Structure (SMILES): Fc1ccc(CN2COc3c(ccc4cccnc34)C2)cc1
- T/C [8]: 96 % of control
- T/C [9]: 97 % of control
- T/C [10]: 94 % of control

Structure (SMILES): CCc1cccc(CC)c1N1C(=O)C=CC1=O
- T/C (dose: 0.5 mg/kg/injection, schedule: Q01DX009 (ip), vehicle: Klucel (hydroxypropylcellulose) (HPC)): 104 % of control
- T/C (dose: 1.0 mg/kg/injection, schedule: Q01DX009 (ip), vehicle: Klucel (hydroxypropylcellulose) (HPC)): 99 % of control
- T/C (dose: 2.0 mg/kg/injection, schedule: Q01DX009 (ip), vehicle: Klucel (hydroxypropylcellulose) (HPC)): 100 % of control
- T/C (dose: 4.0 mg/kg/injection, schedule: Q01DX009 (ip), vehicle: Klucel (hydroxypropylcellulose) (HPC)): 105 % of control
- T/C (dose: 8.0 mg/kg/injection, schedule: Q01DX009 (ip), vehicle: Klucel (hydroxypropylcellulose) (HPC)): 101 % of control
- T/C (dose: 16.0 mg/kg/injection, schedule: Q01DX009 (ip), vehicle: Klucel (hydroxypropylcellulose) (HPC)): 96 % of control

Structure (SMILES): CCCCCCCCCCCCCCCC(=O)N(CCCN)CCCN(CCCN)C(=O)CCCCCCCCCCCCCCC
- T/C [1]: 86 % of control
- T/C [2]: 109 % of control
- T/C [3]: 100 % of control

Structure (SMILES): CCN(C(=S)NCCCOC)c1ccc(C)cc1
- T/C [11]: 97 % of control
- T/C [12]: 86 % of control
- T/C [13]: 87 % of control

Structure (SMILES): CC1=NCCc2cc3c(cc21)OCO3
- T/C (dose: 25.0 mg/kg/injection, schedule: Q01DX001 (ip), vehicle: saline + alcohol): 99 % of control
- T/C (dose: 50.0 mg/kg/injection, schedule: Q01DX001 (ip), vehicle: saline + alcohol): 97 % of control

Structure (SMILES): COc1cc(CCc2cc(OC)c(OC)c(OC)c2)cc(OC)c1OC
- T/C (dose: 31.25 mg/kg/injection, schedule: Q01DX009 (ip), vehicle: saline + Tween-80 + alcohol): 98 % of control
- T/C (dose: 62.5 mg/kg/injection, schedule: Q01DX009 (ip), vehicle: saline + Tween-80 + alcohol): 91 % of control
- T/C (dose: 125.0 mg/kg/injection, schedule: Q01DX009 (ip), vehicle: saline + Tween-80 + alcohol): 102 % of control
- T/C (dose: 250.0 mg/kg/injection, schedule: Q01DX009 (ip), vehicle: saline + Tween-80 + alcohol): 87 % of control

Structure (SMILES): CC(=O)NCCSSCCCCSSCCNC(C)=O
- T/C [14]: 112 % of control
- T/C [15]: 112 % of control

Structure (SMILES): CC(=O)Nc1ccc(-c2ccc(NC(C)=O)cc2)cc1
- T/C (dose: 50.0 mg/kg/injection, schedule: Q01DX009 (ip), vehicle: saline): 105 % of control
- T/C (dose: 100.0 mg/kg/injection, schedule: Q01DX009 (ip), vehicle: saline): 92 % of control
- T/C (dose: 200.0 mg/kg/injection, schedule: Q01DX009 (ip), vehicle: saline): 92 % of control

Structure (SMILES): O=C(O)c1cccc(C(=O)O)c1I
- T/C (dose: 100.0 mg/kg/injection, schedule: Q01DX001 (ip), vehicle: other): 103 % of control
- T/C (dose: 200.0 mg/kg/injection, schedule: Q01DX001 (ip), vehicle: other): 96 % of control
- T/C (dose: 400.0 mg/kg/injection, schedule: Q01DX001 (ip), vehicle: other): 89 % of control

Structure (SMILES): O=C(O)C1C2C=CC(C1C(=O)O)N(/C=C/c1ccccc1)C2=O (stereo unspecified)
- T/C [8]: 102 % of control
- T/C [9]: 91 % of control
- T/C [10]: 90 % of control

Structure (SMILES): O=C(O)c1cc(-c2ccccc2Cl)nc2cc3ccccc3cc12
- T/C [11]: 111 % of control
- T/C [12]: 101 % of control
- T/C [13]: 101 % of control

Structure (SMILES): COP(=O)(CC(=O)CCCCCO[Si](C)(C)C(C)(C)C)OC
- T/C (dose: 60.0 mg/kg/injection, schedule: Q01DX005 (ip), vehicle: saline): 98 % of control
- T/C (dose: 120.0 mg/kg/injection, schedule: Q01DX005 (ip), vehicle: saline): 99 % of control
- T/C (dose: 240.0 mg/kg/injection, schedule: Q01DX005 (ip), vehicle: saline): 100 % of control

Structure (SMILES): Cn1ccoc1=NC1CCCCC1
- T/C [3]: 110 % of control
- T/C [4]: 100 % of control
- T/C [5]: 100 % of control

Structure (SMILES): O=C1Nc2ccc3[nH]ncc3c2C1=O
- T/C (dose: 50.0 mg/kg/injection, schedule: Q01DX005 (ip), vehicle: saline with Tween-80): 101 % of control
- T/C (dose: 100.0 mg/kg/injection, schedule: Q01DX005 (ip), vehicle: saline with Tween-80): 103 % of control
- T/C (dose: 200.0 mg/kg/injection, schedule: Q01DX005 (ip), vehicle: saline with Tween-80): 109 % of control

Structure (SMILES): O=C1OC(c2ccccc2)N/C1=C\c1ccc(OCc2ccccc2)c(OCc2ccccc2)c1 (stereo unspecified)
- T/C [8]: 94 % of control
- T/C [9]: 87 % of control
- T/C [10]: 90 % of control

Structure (SMILES): O=C(Nc1ccc(N=C(c2ccccc2)N2CCOCC2)cc1)c1ccc(C(=O)Nc2ccc(N=C(c3ccccc3)N3CCOCC3)cc2)cc1
- T/C (dose: 25.0 mg/kg/injection, schedule: Q01DX005 (ip), vehicle: Klucel (hydroxypropylcellulose) (HPC)): 101 % of control
- T/C [14]: 101 % of control
- T/C [15]: 93 % of control
- T/C [16]: 96 % of control

Structure (SMILES): O=C1Nc2ccc(Br)cc2/C1=N/n1c(-c2ccccc2)nc2ccccc2c1=O
- T/C [14]: 86 % of control
- T/C [15]: 87 % of control
- T/C [16]: 100 % of control

Structure (SMILES): CCN(CC)CCN1c2ccc(C)cc2Sc2ccc3ccccc3c21
- T/C (dose: 50.0 mg/kg/injection, schedule: Q01DX005 (ip), vehicle: saline + Tween-80 + alcohol): 112 % of control
- T/C (dose: 100.0 mg/kg/injection, schedule: Q01DX005 (ip), vehicle: saline + Tween-80 + alcohol): 102 % of control
- T/C (dose: 200.0 mg/kg/injection, schedule: Q01DX005 (ip), vehicle: saline + Tween-80 + alcohol): 114 % of control
